We go through four molecules from patent publication US6743576B1, “Database system for predictive cellular bioinformatics” (Cytokinetics, Inc., priority 1999, dated 2004).

Holding throughout (assay type): cell-based
In assay [1] the test system is HeLa cells. The experiment in a line: Automated Hoechst image analysis of HeLa cells treated with 6 known compounds. The settings on record: 10 ug/mL, 24 hours, 10x objective, FIG. 11. The source says: In a third experiment, the purpose was to determine whether the automated analysis methods developed in the first experiment can detect differences in Hoechst morphology in the presence of 6 known compounds at one concentration and exposure time in one cell line. In this experiment, HeLa cells were separately treated with 6 compounds with known mechanism of action. The quantitative methods described in the first experiment were applied to the Hoechst images.
Approximately 5,000 HeLa cells per well were plated in a Costar black-walled 96 well tissue culture treated plate and left to recover in the incubator for 24 hours. After this time, 10 ug/mL of cytochalasin D (CD), Taxol, hydroxyurea, vinblastine, nocodazole, and staurosporine was added to different wells at a 1:100 addition in DMSO. The cells were incubated in the presence of drug for 24 more hours. After 24 hours, the cells were removed and fixed as in the first experiment. Then, 9 images per well were collected of the Hoechst staining using a 10× objective.
The low magnification images taken of Hoechst were run through the automated image analysis method described in the first experiment. Plots of the average intensity and area were made of each compound. […] The scatter plots of each compound are visually distinct. […] Furthermore, the number of cells per well was very different (data not shown).

In assay [2] the test system is MDCK cells. Description: Effects of Taxol on MDCK cells, Hoechst morphologies manually counted. The settings on record: 4.5 hours, 10 μM-1pM, FIG. 10. The method, then:
In a second experiment, the effects of Taxol on MDCK cells and the different types of morphological effects were observed. A plurality of MDCK cells grown in 96 well plates were treated with Taxol for 4.5 hours at different concentrations (10 μM−1pM). They were then fixed, labeled with Hoechst, and imaged.
This experiment used a labeling protocol comprising: MEOH fix at −20°, Wash in PBS, Block in PBS/BSA/Serum/Triton-X 100, Incubate with 5 μg/ml Hoechst 10 minutes, and wash.
Cells were inspected for different morphologies and manually counted at each different drug concentration in one well. […] The next step is to test the automated Hoechst analysis of the first experiment with multiple drugs.

The subject of assay [3] is HeLa cells. Description: High magnification Hoechst and phalloidin images of HeLa cells in the presence of drugs. The settings on record: 10 ug/mL, 24 hours, 40x objective, vs DMSO control, FIG. 12. How it is done: A fourth experiment was performed to obtain high magnification images of two markers in the presence of drugs. In this experiment, HeLa cells were treated with 80 generic compounds with known mechanism of action. The quantitative methods described in the first experiment were applied to the Hoechst images.
Approximately 5,000 HeLa cells per well were plated in a Costar black walled 96 well tissue culture-treated plate and left to recover in the incubator for 24 hours. After this time, 10 ug/mL of each compound from the Killer Plate from Microsource Discovery Systems (Gaylordsville, Conn.) was added to different wells at a 1:100 addition in DMSO. The cells were incubated in the presence of drug for 24 more hours. After 24 hours, the cells were removed and fixed as in the first experiment. In addition to being labeled with Hoechst 33342 (against chromatin), cells were also labeled with 1 unit of rhodamine-conjugated phalloidin (against actin) for 30 minutes.
The 96 well plate was imaged twice. Once, 9 images per well were collected of the Hoechst staining using a 10× objective. After this, one image per well of both the phalloidin and Hoechst staining was collected using a 40× objective.
The resulting high magnification images were analyzed qualitatively and distinct pattern differences were detected in both the Hoechst and phalloidin images. […] The top row is the Hoechst staining, and the bottom row is the phalloidin staining from the same well. The columns show the images from wells treated with just DMSO (control), cytochalasin D, and Colchicine. Notice that the morphology of each marker is different in the presence of each drug.

`NC(=O)NO` [Hydroxyurea, hydroxyurea]: in assay [1], the “brightness (average Hoechst intensity) compared to control” value is given as “brighter” and the “cell (Hoechst object) size/area compared to control” value is “larger”.
For the molecule `CC(=O)O[C@H]1C(=O)[C@@]2(C)[C@H]([C@H](OC(=O)c3ccccc3)[C@]3(O)C[C@H](OC(=O)[C@H](O)[C@@H](NC(=O)c4ccccc4)c4ccccc4)C(C)=C1C3(C)C)[C@]1(OC(C)=O)CO[C@@H]1C[C@@H]2O` [Taxol, paclitaxel], in assay [2], the “number of normal mitotic cells as a function of drug concentration” value is listed as “fewer number of normal mitotic cells were detected” and the “proportion of cells undergoing apoptosis as a function of drug concentration” value is “larger proportion of cells underwent apoptosis”.
`COc1cc2c(c(OC)c1OC)-c1ccc(OC)c(=O)cc1[C@@H](NC(C)=O)CC2` [colchicine]: the “actin cytoskeleton morphology in the phalloidin image” value in assay [3] was “there is an effect on the actin cytoskeleton”.
Turning to `C=C1[C@@H](C)[C@H]2[C@H](Cc3ccccc3)NC(=O)[C@]23[C@H](OC(C)=O)/C=C/[C@@](C)(O)C(=O)[C@@H](C)C/C=C/[C@H]3[C@@H]1O` [cytochalasin D], in assay [3], the “actin cytoskeleton morphology in the phalloidin image” value was “expected effect in the phalloidin image” and the “morphology of the chromatin in the Hoechst image” value is “there is an effect in the morphology of the chromatin”. For the same molecule, the “cell (Hoechst object) size/area compared to control” value in assay [1] is on record as “smaller than control”.
